Reference: patent US20050244335A1, “Methods and compositions related to increasing antitumor activity of chemotherapeutic agents” (priority 2004, published 2005)
Read-outs that look alike come from different tables or passages of the source.

What was measured:
[1] = Pharmacokinetics of gemcitabine in nude mice bearing H1299 xenografts; assay type: in vivo; details: for AUC / CL / Cmax / Vss: nude mice bearing H1299 xenografts, gemcitabine 160 mg/kg iv
Description: Female nude mice bearing human lung cancer H1299 xenograft were used (3 mice for each time point). […] Bone marrow cells were harvested by using the same method described above. […] In brief, plasma samples (50 μL) were mixed with 5 mL of scintillation solvent (Beckman) to determine total radioactivity. […] Data and Statistical Analysis.

[2] = system: human cancer xenografts; assay: Six murine-human cancer xenograft models overall: efficacy and toxicity
Description: (§4) Human cancer xenograft models were established using the methods reported previously (26-29). When confluence reached 80%, cultured LS174T, MCF-7, MDA-MB-468, U87-MG, A549 and H1299 cells were harvested from the monolayer cultures, washed with the above indicated serum-free medium and resuspended in the same medium with Matrigel® basement membrane matrix at a 3:1 ratio, and then injected subcutaneously (s.c.) (5×10^6 cells, total volume 0.2 mL) into the left inguinal area of the nude mice. The animals were monitored for activity, physical condition, determination of body weight, and measurement of tumor growth. Tumor growth was determined by caliper measurement in two perpendicular diameters of the implant every other day. Tumor weight (in g) was calculated by the formula, 1/2a×b^2 where “a” is the long diameter and “b” is the short diameter (in cm).
(§5) Nude mice bearing human cancer xenografts were randomly divided into various treatment and control groups (5 mice/group). In treatment groups, animals were pre-treated with DEX subcutaneously (s.c., 0.1 mg/day for 5 days, Day −4-0) or saline (as controls). Carboplatin was administered intraperitoneally (i.p.) at a single dose of 120 mg/kg (360 mg/m^2) on day 0.
(§6) The antitumor activity (tumor mass) and peripheral blood counts were expressed as mean and standard deviations and the significance of differences were analyzed by ANOVA.
(§7) When mean tumor mass reached 44-68 mg, animals were treated with s.c. DEX at a dose of 0.1 mg/day for 5 days, followed by chemotherapy.

[3] = Pharmacokinetics and tissue distribution of gemcitabine in CD-1 mice; assay type: in vivo; details: gemcitabine 160 mg/kg iv
Description: At various times (5, 15, and 30 min, 1, 2, 4, 8, and 24 hr after drug dosing), plasma, bone marrow, and tissues including liver, kidneys, heart, lungs, spleen, brain and tumor were collected and treated as described above.
In brief, plasma samples (50 μL) were mixed with […] of scintillation solvent (Beckman) to determine total radioactivity. Tissue homogenates (50-200 μL) were mixed with 200 μL solubilizer (TS-2) overnight, neutralized with 400 μL of 0.3% acetic acid, and then mixed with scintillation solvent (5 mL) to quantitate the total radioactivity.
(§1) The significance of the differences among treated groups and controls were analyzed by ANOVA.

[4] = system: CD-1 mice
Description: sing a protocol similar to the above survival study, the effects of DEX on chemotherapy-induced bone marrow toxicity were studied in male CD-1 mice. DEX (s.c., 0.1 mg/mouse/day for 5 days) was given prior to (day −4-0) or after (day 0 to 4) a single i.p. dose of carboplatin (600 mg/m^2 or 200 mg/kg). On days −4, 0, 3, 7, 14, peripheral blood samples (60 μL) were obtained from postorbital venous plexus using a microcapillary tube coated with 5% ethylenediaminetetraacetic acid and cell counts were obtained using a Coulter counter. Wright's stained peripheral blood smears were examined by light microscopy and the percentage of lymphocytes, granulocytes and monocytes were recorded.
as §1
To examine possible mechanisms responsible for reduced mortality in mice pre-treated with DEX, peripheral blood counts before and after chemotherapy were determined. […] The same experimental design was used to examine the dose-schedule effects of dexamethasone prevention of neutropenia.

[5] = system: NSCLC patients; assay: Clinical trial of Dex pretreatment with carboplatin and gemcitabine in stage 4 NSCLC patients; assay type: in vivo, human; details: for AGC nadir ratio (course 2 ÷ course 1), M±SE: 4 days prior to and day of chemotherapy
Description: Patients were randomized at a 1:2:2 ratio to receive no Dex (Cohort 1), or Dex 8 mg bid (Cohort 2) or 16 mg bid (Cohort 3), 4 days prior to and the day of each chemotherapy treatment. Dex was given only in courses 2, 3, and 4 so that toxicities between course 1 vs. course 2 comparisons could be made.

[6] = system: human lung cancer H1299 xenografts; assay: In vivo chemotherapy, lung cancer H1299 xenograft model in nude mice
Description: (§2) Cell Culture. […] All media contained 1% penicillin-streptomycin.
(§3) Data and Statistical Analysis.

[7] = system: human colon cancer LS174T xenografts; assay: In vivo chemotherapy, colon cancer LS174T xenograft model in nude mice; details: DEX s.c. 0.1 mg/day 5 days, carboplatin 120 mg/kg i.p. day 0
Description: as §2, §3

[8] = system: human glioma U87-MG xenografts; details: U87MG model
Description: Cell Culture. The cell lines of human cancers (colon LS174T, breast MCF-7 and MDA-MB-468, and lung A549) and glioma (U87-MG) were obtained from American Type Culture Collection (Rockville, Md.) and cultured according to their instruction. LS174T cells were cultured in modified Earle's medium with 0.1 mM nonessential amino acids and Earle's balanced salt solution containing 10% FBS. MCF-7 cells were grown in modified Earle's medium containing 10% FBS, 1 mM non-essential amino acids and Earle's balanced salt solution, 1 mM sodium pyruvate and 10 mg/L bovine insulin. MDA-MB-468 cells were grown in Dulbecco's modified Eagle's/F-12 Ham's medium (1:1 mixture) containing 10% FBS. […]
Animal Tumor Models. […] The animals were monitored for activity, physical condition, determination of body weight, and measurement of tumor growth. Tumor growth was determined by caliper measurement in two perpendicular diameters of the implant every other day. Tumor weight (in g) was calculated by the formula, 1/2a×b^2 where “a” is the long diameter and “b” is the short diameter (in cm). […]
Data and Statistical Analysis. The antitumor activity (tumor mass) and peripheral blood counts were expressed as mean and standard deviations and the significance of differences were analyzed by ANOVA. […]

[9] = system: human breast cancer MCF-7 xenografts; assay: In vivo chemotherapy, breast cancer MCF-7 xenograft model in nude mice; details: MCF-7 model
Description: as §2, §3

[10] = system: CD-1 mice; assay type: in vivo; details: for survival rate: carboplatin 600 mg/m^2 (200 mg/kg) i.p., 14-day
Description: Male CD-1 mice, randomly divided into multiple treatment and control groups (10 mice/group), were given DEX by subcutaneous (s.c.) injection at doses of 0.01, 0.05, 0.1, 0.3 mg/mouse/day or saline (as controls) for 5 days prior to (day −4 to 0) or after (day 0 to 4) a single intraperitoneal (i.p.) injection of carboplatin (600 mg/m^2 or 200 mg/kg) on day 0. Animals were monitored daily for activity, physical condition, body weight and 14-day survival rates.
as §1

[11] = system: human lung cancer A549 xenografts; details: A549 model
Description: as §2, §3

[12] = system: human cancer xenografts; details: in vivo
Description: as §4, §5, §6, §7

Compound: Nc1ccn([C@@H]2O[C@H](CO)[C@@H](O)C2(F)F)c(=O)n1 [gemcitabine]
- increase in tumor AUC by DEX pretreatment ([1]; H1299 nude mice): 60%
- AUC ([1]; bone marrow, DEX (+)): 16.41 µg·h/mL
- CL ([1]; bone marrow, DEX (+)): 9.75 mL/g/h
- Cmax ([1]; bone marrow, DEX (+)): 14.36 µg/mL
- Vss ([1]; bone marrow, DEX (+)): 11.14 mL/g
- AUC ([1]; bone marrow, DEX (−)): 21.10 µg·h/mL
- CL ([1]; bone marrow, DEX (−)): 7.58 mL/g/h
- Cmax ([1]; bone marrow, DEX (−)): 18.53 µg/mL
- Vss ([1]; bone marrow, DEX (−)): 8.64 mL/g
- AUC ([1]; liver, DEX (+)): 107.85 µg·h/mL
- CL ([1]; liver, DEX (+)): 1.48 mL/g/h
- Cmax ([1]; liver, DEX (+)): 157.46 µg/mL
- Vss ([1]; liver, DEX (+)): 1.02 mL/g
- AUC ([1]; liver, DEX (−)): 123.27 µg·h/mL
- CL ([1]; liver, DEX (−)): 1.30 mL/g/h
- Cmax ([1]; liver, DEX (−)): 171.80 µg/mL
- Vss ([1]; liver, DEX (−)): 0.93 mL/g
- AUC ([1]; plasma, DEX (+)): 322.43 µg·h/mL
- CL ([1]; plasma, DEX (+)): 0.50 mL/g/h
- Cmax ([1]; plasma, DEX (+)): 237.16 µg/mL
- Vss ([1]; plasma, DEX (+)): 9.90 mL/g
- AUC ([1]; plasma, DEX (−)): 277.38 µg·h/mL
- CL ([1]; plasma, DEX (−)): 0.58 mL/g/h
- Cmax ([1]; plasma, DEX (−)): 286.72 µg/mL
- Vss ([1]; plasma, DEX (−)): 5.96 mL/g
- AUC ([1]; spleen, DEX (+)): 505.40 µg·h/mL
- CL ([1]; spleen, DEX (+)): 0.32 mL/g/h
- Cmax ([1]; spleen, DEX (+)): 179.42 µg/mL
- Vss ([1]; spleen, DEX (+)): 0.89 mL/g
- AUC ([1]; spleen, DEX (−)): 909.92 µg·h/mL
- CL ([1]; spleen, DEX (−)): 0.18 mL/g/h
- Cmax ([1]; spleen, DEX (−)): 221.99 µg/mL
- Vss ([1]; spleen, DEX (−)): 0.72 mL/g
- AUC ([1]; tumor, DEX (+)): 674.44 µg·h/mL
- CL ([1]; tumor, DEX (+)): 0.23 mL/g/h
- Cmax ([1]; tumor, DEX (+)): 46.66 µg/mL
- Vss ([1]; tumor, DEX (+)): 12.72 mL/g
- AUC ([1]; tumor, DEX (−)): 434.55 µg·h/mL
- CL ([1]; tumor, DEX (−)): 0.37 mL/g/h
- Cmax ([1]; tumor, DEX (−)): 49.15 µg/mL
- Vss ([1]; tumor, DEX (−)): 9.01 mL/g
- death ([2]; nude mice, carboplatin 120 mg/kg, gemcitabine 160 mg/kg i.p.): no death occurred
- AUC ([3]; bone marrow, DEX (+)): 7.03 µg·h/mL
- CL ([3]; bone marrow, DEX (+)): 22.76 mL/g/h
- Cmax ([3]; bone marrow, DEX (+)): 15.82 µg/mL
- Vss ([3]; bone marrow, DEX (+)): 10.12 mL/g
- AUC ([3]; bone marrow, DEX (−)): 18.35 µg·h/mL
- CL ([3]; bone marrow, DEX (−)): 8.72 mL/g/h
- Cmax ([3]; bone marrow, DEX (−)): 16.12 µg/mL
- Vss ([3]; bone marrow, DEX (−)): 9.93 mL/g
- AUC ([3]; liver, DEX (+)): 124.80 µg·h/mL
- CL ([3]; liver, DEX (+)): 1.28 mL/g/h
- Cmax ([3]; liver, DEX (+)): 166.94 µg/mL
- Vss ([3]; liver, DEX (+)): 0.96 mL/g
- AUC ([3]; liver, DEX (−)): 123.68 µg·h/mL
- CL ([3]; liver, DEX (−)): 1.29 mL/g/h
- Cmax ([3]; liver, DEX (−)): 158.43 µg/mL
- Vss ([3]; liver, DEX (−)): 1.01 mL/g
- AUC ([3]; plasma, DEX (+)): 319.96 µg·h/mL
- CL ([3]; plasma, DEX (+)): 0.50 mL/g/h
- Cmax ([3]; plasma, DEX (+)): 253.68 µg/mL
- Vss ([3]; plasma, DEX (+)): 10.81 mL/g
- AUC ([3]; plasma, DEX (−)): 552.32 µg·h/mL
- CL ([3]; plasma, DEX (−)): 0.29 mL/g/h
- Cmax ([3]; plasma, DEX (−)): 264.13 µg/mL
- Vss ([3]; plasma, DEX (−)): 16.64 mL/g
- AUC ([3]; spleen, DEX (+)): 135.50 µg·h/mL
- CL ([3]; spleen, DEX (+)): 1.18 mL/g/h
- Cmax ([3]; spleen, DEX (+)): 193.29 µg/mL
- Vss ([3]; spleen, DEX (+)): 0.83 mL/g
- AUC ([3]; spleen, DEX (−)): 375.21 µg·h/mL
- CL ([3]; spleen, DEX (−)): 0.43 mL/g/h
- Cmax ([3]; spleen, DEX (−)): 196.84 µg/mL
- Vss ([3]; spleen, DEX (−)): 0.81 mL/g

Compound: C[C@@H]1C[C@H]2[C@@H]3CCC4=CC(=O)C=C[C@]4(C)[C@@]3(F)[C@@H](O)C[C@]2(C)[C@@]1(O)C(=O)CO [DEX, dexamethasone]
- optimal dose for prevention of neutropenia ([4]; CD-1 mice, DEX before carboplatin 360 mg/m^2): 0.1 mg/kg
- peripheral blood counts, effect of dexamethasone ([4]; mouse, in vivo): induction of transient granulocytosis and lymphopenia
- Responses: number of PD ([5]; Cohort 2 (n=8), Dex 8 mg bid): 1
- Responses: number of PR ([5]; Cohort 2 (n=8), Dex 8 mg bid): 7
- platelet nadir ratio (course 2 ÷ course 1), M±SE ([5]; Cohort 2: Dex 8 mg bid): 2.68±0.6
- AGC nadir ratio (course 2 ÷ course 1), M±SE ([5]; Cohort 2: Dex 8 mg bid): 2.68±0.8
- Responses: number of PD ([5]; Cohort 3 (n=10), Dex 16 mg bid): 1
- Responses: number of PR ([5]; Cohort 3 (n=10), Dex 16 mg bid): 8
- Responses: number of SD ([5]; Cohort 3 (n=10), Dex 16 mg bid): 1
- platelet nadir ratio (course 2 ÷ course 1), M±SE ([5]; Cohort 3: Dex 16 mg bid): 2.72±0.6
- AGC nadir ratio (course 2 ÷ course 1), M±SE ([5]; Cohort 3: Dex 16 mg bid): 2.94±0.7
- reduction of toxicity, data trends ([5]; Dex 16 mg): effective in reducing toxicity
- Dex DLTs ([5]; NSCLC patients, Dex 8 or 16 mg bid): No Dex DLTs were observed
- increase of anticancer effects of carboplatin by DEX pretreatment [6]: 70%
- increase of therapeutic effect of carboplatin by DEX pretreatment [7]: approximately 80%
- increase of efficacy of carboplatin, gemcitabine or combination by DEX pretreatment ([2]; all xenograft models tested): 2-4 fold
- increase of therapeutic effectiveness of combination therapy of carboplatin and gemcitabine by DEX pretreatment [8]: 130%
- increase of efficacy of carboplatin by DEX pretreatment [9]: 66%
- increase of efficacy of gemcitabine by DEX pretreatment [9]: 60%
- death ([10]; CD-1 mice, DEX alone s.c. 0.01-0.3 mg/mouse/day for 5 days): No death occurred
- survival rate ([10]; CD-1 mice, DEX pretreatment 0.01 mg/mouse/day for 5 days): 40%
- survival rate ([10]; CD-1 mice, DEX pretreatment s.c. 0.1 mg/mouse/day for 5 days): 80%
- mortality of treated animals ([10]; combination treatment with carboplatin and gemcitabine, DEX pretreatment): reduced the mortality of treated animals
- increase of therapeutic effectiveness of carboplatin by DEX pretreatment [11]: 50%
- increase of therapeutic effectiveness of gemcitabine by DEX pretreatment [11]: 60%
- effect of DEX pretreatment on toxicity profiles of the two chemotherapeutic agents [12]: no effect on toxicity profiles
